Results from US6916818B2, “Azaindoles having serotonin receptor affinity” (NPS Allelix Corp., priority 1999, dated 2005).

Biological target: T1, human 5HT6 receptor (Homo sapiens, UniProt P50406)
T1 construct: expressed in transfected cells
Assay: Functional assay: serotonin-stimulated adenyl cyclase (cAMP EIA) in HEK 293 cells expressing 5HT6
Format: cell-based
Settings: test compound 100 nM and 10 μM along with serotonin
Procedure: The 5HT6 receptor responds to serotonin and other agonists by increasing adenyl cyclase mediated production of cyclic AMP. Particular test compounds were assayed for their effect on adenyl cyclase activity using the procedure described below.
Compounds acting as antagonists at the 5HT6 receptor will antagonize the agonist effect of serotonin and thus, will block the serotonin-induced increase in adenyl cyclase activity.
HEK 293 cells stably expressing the human 5HT6 receptor were plated in 6 well plates in DMEM (Dulbecco's Modified Eagle Medium)/F12 (Nutrient Mixture F12—Ham) media with 10% FCS (fetal calf serum) and G418 (Geneticen Disulfate, 500 ug/ml), and incubated at 37° C. in a CO2 incubator. The cells were allowed to grow to about 70% confluence before use in the assay.
The culture medium of each well was removed, and the wells were washed once with serum free media. Then 2 ml of SFM+IBMX medium (SFM with 0.5 mM IBMX, 3-isobutyl-1-methylxanthine, 0.1% ascorbic acid and 10 mM pargyline) was added to each well and the wells were incubated at 37° C. for 10 min. Following incubation, the SFM+IBMX medium was removed from each well and fresh SFM+IBMX media was added to the wells separately with one of a) serotonin (1 μM final concentration); b) test compound (100 nM and 10 μM, to test for agonist activity); and c) test compound (100 nM and 10 μM) along with serotonin ([…], to test for antagonist activity). Basal adenyl cyclase activity was determined from wells with only SFM+IBMX media added.
The cells were then incubated at 37° C. for 30 minutes in a CO2 incubator. […] The pellets were discarded and the supernatants were stored at 4° C. until assayed for cAMP concentration. cAMP content for each extract was determined in duplicate by EIA (enzyme-immunoassay) using the Amersham Biotrak cAMP EIA kit (Amersham RPN 225). Final results were expressed as % basal response for agonists and % reversal of serotonin response for antagonists.
The total stimulation of adenyl cyclase by serotonin (So) was determined as the difference in concentration of cAMP in the serotonin-treated cells (Cd) and the basal-treated cells (Cf). […]
The net stimulation (S) of basal adenyl cyclase by an agonist test compound was determined as the difference in cAMP concentration in the drug-treated cell (C) and the basal-treated cells (Cf). […]
The net stimulation (Ss) of basal adenyl cyclase by serotonin in the presence of an antagonist test compound was determined as the difference in cAMP concentration in the serontonin-drug-treated cells (Cs) and the basal-treated cells (Cf). […]
The ability of the antagonist test compound to reverse the serotonin stimuation of adenyl cyclase activity (% reversal, % R) was determined by the formula: % R=(1−Ss/So)×100

T1 sequence (P50406 whole entry): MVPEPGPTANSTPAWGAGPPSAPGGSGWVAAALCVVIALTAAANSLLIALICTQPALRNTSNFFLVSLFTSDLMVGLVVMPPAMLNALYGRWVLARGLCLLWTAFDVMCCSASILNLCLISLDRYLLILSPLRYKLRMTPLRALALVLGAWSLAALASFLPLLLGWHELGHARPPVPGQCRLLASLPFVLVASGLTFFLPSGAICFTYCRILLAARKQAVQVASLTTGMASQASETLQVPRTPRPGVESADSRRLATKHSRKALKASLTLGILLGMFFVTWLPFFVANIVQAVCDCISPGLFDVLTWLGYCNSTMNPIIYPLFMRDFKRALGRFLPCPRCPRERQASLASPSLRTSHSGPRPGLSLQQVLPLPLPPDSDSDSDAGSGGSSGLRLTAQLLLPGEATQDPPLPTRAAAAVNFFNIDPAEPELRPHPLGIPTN

Compound | reversal of serotonin stimulation of adenyl cyclase (antagonist activity)
O=S(=O)(c1cccc2ccccc12)n1cc(C2=CCN3CCCC3C2)c2cnccc21 (stereo not shown) [3-(1,2,3,5,8,8a-Hexahydro-7-indolizinyl)-1-(1-naphthalenesulfonyl)-5-azaindole] | able to reverse the serotonin stimulation of adenyl cyclase
O=S(=O)(c1ccccc1)n1cc(C2=CCN3CCCC3C2)c2cnccc21 (stereo not shown) [3-(1,2,3,5,8,8a-Hexahydro-7-indolizinyl)-1-benzenesulfonyl-5-azaindole] | able to reverse the serotonin stimulation of adenyl cyclase
O=S(=O)(c1ccccc1)n1cc(C2=CCN3CCCC3C2)c2cccnc21 (stereo not shown) [3-(1,2,3,5,8,8a-Hexahydro-7-indolizinyl)-1-benzenesulfonyl-7-azaindole] | able to reverse the serotonin stimulation of adenyl cyclase
O=S(=O)(c1cccc2ccccc12)n1cc(C2=CCN3CCCC3C2)c2cccnc21 (stereo not shown) [3-(1,2,3,5,8,8a-Hexahydro-7-indolizinyl)-1-(1-naphthalenesulfonyl)-7-azaindole] | able to reverse the serotonin stimulation of adenyl cyclase
